The values that follow come from patent US12195762B2, “Induction of pluripotent cells” (The Scripps Research Institute, priority 2009, dated 2025).

“Also recorded” adds a separate entry of the source.

The test system of assay [1] is human primary fibroblasts (CRL2097 or BJ). As to the kind of experiment: iPSC induction from human primary fibroblasts transduced with the four reprogramming factors, with compound treatment. The assay is classed as cell-based. Particulars: for effect on reprogramming (in words): 4 factor-mediated reprogramming of fibroblasts. On the procedure: We tested known inhibitors of the TGFβ receptor and MEK on 1×10^4 (Feng, B. et al., Cell Stem Cell 4, 301-12 (2009)) human primary fibroblasts (CRL2097 or BJ) that were retrovirally transduced with the 4TFs, for their effect on reprogramming kinetics and efficiency (see FIG. 1a for details). On day 7 (D7) post-infection, the compounds were added, individually or in combinations, and the cultures were examined for iPSCs over the next 1-3 weeks.
The Slc7a1-expressing human fibroblast cells were seeded at 1×10^5 cells/well of a 6 well plate on the day 1. On day 2, 0.25 ml of each retroviral supernatant was added to the cells in the presence of 6 μg/ml polybrene. A second round of transduction was done on day 3. Infection efficiency was estimated by fluorescence microscopy on cells transduced in parallel with GFP or RFP gene-carrying retroviruses. Seven days after initial transduction, fibroblasts were harvested by trypsinization and re-plated at 1×10^4 cells/well of a 6 well plate coated with matrigel (1:50 dilution, cat 354234, BD Biosciences). For compound treatment, the cells were cultured in human reprogramming medium (DMEM/F12, 20% Knockout serum replacer, 1×MEM Non-Essential amino acid, lx glutamax, 0.11 mM 2-Mercaptoethanol, 20 ng/ml bFGF and 1,000 U/ml LIF) and were treated with 2 μM SB431542 (Stemgent), 0.5 μM PD0325901 (Stemgent), 0.5 μM Thiazovivin, or combinations of the compounds. The media were changed every 2-3 days depending on the cell density. Seven days after compound treatment, either the plates were fixed and stained for Alkaline phosphatase (ALP) activity, or stained for protein markers, or the cultures were continued with or without indicated splitting by trypsinization till day 30. For split cultures, the cells were split (1:4) and re-plated onto irradiated CF-1 MEF feeder layer (2.5×10^5 cells/well) in each well of 6 well plate and were split (1:10) again on day 21. The cells were maintained in the same media and compound cocktail described above except for the concentrations of PD0325901 (0.5 μM for D14 and 1 μM for D21) and SB431542 (0.5-1 μM after D14). The iPSC colonies were subsequently maintained in conventional hESC media in the absence of the above compounds.
Alkaline phosphatase staining was performed using ALP detection kit (cat no: SCR004, Chemicon) according to the product instructions. For immunocytochemistry, cells were fixed in 4% paraformaldehyde (10 min, RT), washed twice with PBS, blocked using 5% normal donkey serum (Chemicon) and 0.1% TritonX-100 (15 min, RT) and then treated with primary antibodies overnight at 4° C. The primary antibodies used were anti-NANOG (cat no: AB9220, Chemicon, 1:1,000); anti-OCT4 (cat no: sc-5279, Santa Cruz biotech, 1:200), anti-SSEA 4 (cat no: mab4304, Chemicon, 1:500), anti-Tra-1-81 (cat 560123, BD Biosciences, 1:100), anti-Tra-1-81 (mAb 4381, Chemicon, 1:500), anti-βIII TUBULIN (cat no: MMS-435P, Covance Research Products Inc, 1:1000), anti-PDX 1 (1:500) (a kind gift from Dr. C. Wright), anti-BRACHYURY (cat No: AF2085, R & D, final concentration 0.2 μg/ml). The cells were washed twice with PBS and then treated with secondary antibodies for 1 hour at room temperature. The secondary antibodies used were Alexa fluor 488 donkey anti-rabbit or anti-mouse IgG (Invitrogen, 1:1,000) and Alexa fluor 555 donkey anti-rabbit or anti-mouse IgG (Invitrogen, 1:1,000). Nuclei were stained with 0.5 μg/ml DAPI (Sigma). Images were captured using a Nikon Eclipse TE2000-U/X-cite 120 EXFO microscope with a photometric CoolSnap HQ2 camera.

The subject of assay [2] is NHEKs, Neonatal Human Epidermal Keratinocytes. As to the kind of experiment: Reprogramming of NHEKs (TRA-1-81 positive iPSC colonies). The assay is classed as cell-based. The note with it: for generation of iPSCs / enhancement of reprogramming under OK condition (in words): 2TFs (OK). The method, then: NHEKs were cultured in a 100 mm tissue culture dish and transduced 3 times (3-4 hours each transduction) with freshly produced lentivirus supernatants. 1,000,000 transduced NHEKs were seeded on the irradiated x-ray inactivated CF1 MEF feeder cells in a 100-mm dish and cultured in KCM and treated with 5 μM PS48, 0.25 mM NaB (Stemgent) and 0.5 μM A-83-01 (Stemgent) for 2 weeks, followed by changing half volume of media to hESCM and supplementing with 5 μM PS48, 0.25 mM NaB and 0.5 μM A-83-01 for another 2 weeks. Then cell culture media were changed to hESCM and supplemented with 5 μM PS48, 0.25 mM NaB, 0.5 μM A-83-01 and 0.5 μM PD0325901 (Stemgent) for additional four weeks. The same OCT4 infected keratinocytes cultured in media without chemicals were used as a control. The culture was split by Accutase (Millipore) and treated with 1 μM Thiazovivin (Stemgent) in the first day after splitting. The iPSC colonies stained positive by Alexa Fluor 555 Mouse anti-Human TRA-1-81 antibody (BD Pharmingen) were picked up for expansion on feeder cells in hESCM and cultured routinely.
NHEKs, Neonatal Human Epidermal Keratinocytes; HUVECs, Human Umbilical Vein Endothelial Cells; AHEKs, Adult Human Epidermal Keratinocytes; AFDCs, Amniotic Fluid Derived Cells. Chemical concentration used: PD, 0.5 μM PD0325901; A83, 0.5 μM A-83-01; PS48, 5 μM PS48; VPA, 0.5 mM Valproic acid; NaB, 0.25 mM Sodium butyrate; Par, 2 μM Parnate; CHIR, 3 μM CHIR99021. For four-factor or three-factor induced reprogramming, NHEKs were seeded at a density of 100,000 transduced cells per 10 cm dish and positive colonies were counted four-week later; For two-factor induced reprogramming, NHEKs were seeded at a density of 100,000 transduced cells per 10 cm dish and positive colonies were counted six-week later; For one-factor induced reprogramming, NHEKs and AHEKs were seeded at a density of 1,000,000 transduced cells per 10 cm dish and positive colonies were counted eight-week later; HUVECs and AFDCs were seeded at a density of 200,000 transduced cells per 10 cm dish and positive colonies were counted six-week later.

As for `NC(=O)c1ccc(-c2nc(-c3ccc4c(c3)OCO4)c(-c3ccccn3)[nH]2)cc1` [SB431542], the “dose dependence of the effect on iPS cell generation” value in assay [1] (4TFs) is given as “dose dependent”. In addition, the “ALP+ colonies with hESC-like morphology” value in assay [1] (4TFs, 1×10^4 cells, day 7 post-treatment (D14), SB431542 2 μM, PD0325901 0.5 μM) is recorded as 1-2 colonies. The “number of granulate (partially reprogrammed) colonies” value in assay [1] (4TFs, 30 days without splitting) was “outnumbered by several fold the few hESC-like colonies”. As to `CCCC(=O)[O-].[Na+]` [NaB, Sodium butyrate], the “generation of iPSCs / enhancement of reprogramming under OK condition (in words)” value in assay [2] was “substantially enhance reprogramming; also recorded: much more reliable and efficient”. On to `O=C(NOC[C@H](O)CO)c1ccc(F)c(F)c1Nc1ccc(I)cc1F` [PD0325901], for which the “NANOG+ colonies at day 14” value in assay [1] (4TFs, D14, no splitting) is “no NANOG^+ colonies”. `Cc1ccc2c(c1)C(=O)C1(O)CCN(c3ccccc3)C1=N2` (stereo not drawn) [blebbistatin]: in assay [1], the “effect on reprogramming (in words)” value was “can be substituted for SB431542 (an ALK5 inhibitor), albeit with a reduced effect”. Same read-out and setting: the value for TGFβ was “inhibitory effect”.

Regarding `O=C(O)/C=C(/CCc1ccc(Cl)cc1)c1ccccc1` [PS48], the “generation of iPSCs / enhancement of reprogramming under OK condition (in words)” value in assay [2] was “substantially enhance reprogramming”. Further, the “enhancement of the reprogramming efficiency” value in assay [2] (two factors/OK, with 0.5 μM PD0325901 and 0.5 μM A-83-01) was “about fifteen fold”.
